Data reported in US20240417735A1, “ORAL CODELIVERY OF 5-FLUOREURACIL AND Bcl2 siRNA TREATING STOMACH CANCER” (Board of Regents, The University of Texas System, priority 2023, published 2024).

Legend:
Bcl2 [1] = assay: Immunohistochemistry/immunofluorescence of Bcl2 in stomach sections; assay type: in vivo, C57BL/6 mice; conditions: anti-Bcl2 positive area vs whole section stained with DAPI
Description: (§1) A stomach cancer mice model was developed by feeding N-methyl-N-nitrosourea (NMNU) with water (IACUC protocol no A-201019-A). The 6-week-old C57BL/6 mice were kept in a 12 hr light-12 hr dark cycle. The mice had unprotected access to food and water. NMNU was dissolved in distilled water available ad libitum, freshly prepared three times per week. The mice received 240 ppm NMNU in the drinking water over 5 weeks (every other week). Five weeks after NMNU administration, the mice were ready for the experiment, as the method was reported elsewhere. A total of 30 stomach cancer mice were prepared and divided randomly into […]—no treatment (control), 5FU, BG/5FU, siRNA, BG/siRNA, and BG/5FU/siRNA. Another group of healthy mice were used as a negative control without any treatment. […] Immediately after harvesting the size and weight of the stomach and intestine were measured. […]
The stomach tissue was also utilized to analysis Bcl2 protein expression using immunohistochemistry (IHC). The anti-Bcl2 positive area was quantified in comparison to the whole tissue section stained with DAPI. […] To measure the relative expression of Bcl2 on the tissue section the data was calculated and compared with the stomach tissue collected from the healthy mice, where Bcl2 expression in healthy mice was considered as 100% (FIG. 5B). […]

[2] = system: advanced colorectal cancer; conditions: cited from earlier work
Ki67 = assay: Immunofluorescence of Ki67 in stomach sections; assay type: in vivo, C57BL/6 mice; conditions: vs whole tissue section DAPI stained
Description: as §1
Cell proliferation marker was measured by immunofluorescence assay to evaluate the antitumor effect of the formulations. […] The protein expression was quantified from immunofluorescence images. The area with Ki67 positive cells was measured in compared to the whole tissue section with DAPI stained. The area (%) of healthy, untreated, 5FU, BG/5FU, siRNA, BG/siRNA, and BG/5FU/siRNA was measured as 0.16%, 0.27%, 0.54%, 0.52%, 0.38%, 0.29%, and 0.03%, respectively. […]

[3] = system: stomach cancer mice model; assay: TUNEL assay of apoptosis in stomach tissue of stomach cancer mice; assay type: in vivo, C57BL/6 mice; conditions: relative to untreated control; oral, 5 doses every 3rd day
Description: A stomach cancer mice model was developed by feeding N-methyl-N-nitrosourea (NMNU) with water (IACUC protocol no A-201019-A). The 6-week-old C57BL/6 mice were kept in a 12 hr light-12 hr dark cycle. The mice had unprotected access to food and water. NMNU was dissolved in distilled water available ad libitum, freshly prepared three times per week. The mice received 240 ppm NMNU in the drinking water over 5 weeks (every other week). Five weeks after NMNU administration, the mice were ready for the experiment, as the method was reported elsewhere. A total of 30 stomach cancer mice were prepared and divided randomly into 5 groups—no treatment (control), 5FU, BG/5FU, siRNA, BG/siRNA, and BG/5FU/siRNA. Another group of healthy mice were used as a negative control without any treatment. […] Immediately after harvesting the size and weight of the stomach and intestine were measured.
A TUNEL assay was conducted to investigate the apoptosis within the tissue from the stomach of both healthy, untreated cancer, and treated cancer mice. […] Apoptosis was quantified by the mean fluorescent intensity and compared with healthy control and untreated control. The degree of apoptosis was calculated as 49, 107, 38, 62, and 131% for the 5FU, BG/5FU, siRNA, BG/siRNA, and BG/5FU/siRNA group relative to untreated control, respectively.

Bcl2 [4] = assay: Western blotting of Bcl2 in stomach tissue lysate; assay type: in vivo, C57BL/6 mice; conditions: healthy = 1
Description: A stomach cancer mice model was developed by feeding N-methyl-N-nitrosourea (NMNU) with water (IACUC protocol no A-201019-A). The 6-week-old C57BL/6 mice were kept in a 12 hr light-12 hr dark cycle. The mice had unprotected access to food and water. NMNU was dissolved in distilled water available ad libitum, freshly prepared three times per week. The mice received 240 ppm NMNU in the drinking water over 5 weeks (every other week). Five weeks after NMNU administration, the mice were ready for the experiment, as the method was reported elsewhere. A total of 30 stomach cancer mice were prepared and divided randomly into […]—no treatment (control), 5FU, BG/5FU, siRNA, BG/siRNA, and BG/5FU/siRNA. Another group of healthy mice were used as a negative control without any treatment. To investigate therapeutic feasibility, 5FU (10 mg/kg) and siRNA (100 nM) was administered either orally (PO) or intravenously (IV). All the formulations were freshly prepared prior to administration. […] Immediately after harvesting the size and weight of the stomach and intestine were measured.
The fresh frozen stomach tissue was homogenized using RIPA buffer with freshly prepared protease inhibitor in it. […] The supernatant was collected, and the total protein content was determined using Bradford's assay (Sigma-Aldrich). […] The band intensities were calculated using ImageJ software.

[5] = system: stomach cancer mice model; assay: H&E histology of stomach; assay type: in vivo, C57BL/6 mice; conditions: 10× magnification, whole tumor area
Description: A stomach cancer mice model was developed by feeding N-methyl-N-nitrosourea (NMNU) with water (IACUC protocol no A-201019-A). The 6-week-old C57BL/6 mice were kept in a 12 hr light-12 hr dark cycle. The mice had unprotected access to food and water. NMNU was dissolved in distilled water available ad libitum, freshly prepared three times per week. The mice received 240 ppm NMNU in the drinking water over 5 weeks (every other week). Five weeks after NMNU administration, the mice were ready for the experiment, as the method was reported elsewhere. A total of 30 stomach cancer mice were prepared and divided randomly into […]—no treatment (control), 5FU, BG/5FU, siRNA, BG/siRNA, and BG/5FU/siRNA. Another group of healthy mice were used as a negative control without any treatment. To investigate therapeutic feasibility, 5FU (10 mg/kg) and siRNA (100 nM) was administered either orally (PO) or intravenously (IV). All the formulations were freshly prepared prior to administration. Formulations were administered orally on every 3rd day for the subsequent 5 cycles over 15 days. The animals were sacrificed 72 hr after the last treatment followed by the organ harvest and blood collection for further studies. Immediately after harvesting the size and weight of the stomach and intestine were measured. […]

[6] = Ex vivo diffusion study in porcine intestine lumen; assay type: in vitro ADME; conditions: for distribution in intestine layers (fluorescence): with BG
Description: The mucoadhesiveness and intestinal transportation of hydrophobic small molecule were further confirmed by an ex vivo diffusion study in a porcine intestine lumen. As the mucous layer is a barrier for hydrophobic molecules, to check how it crosses through the epithelial layer with assistance of BG we have used coumarin-6, a small molecule hydrophobic fluorescent dye with similar chemical and physical properties (molecular weight and hydrophobicity) as 5FU, for ease of visualization and detection purpose. […] The same tissue was subjected to be observed under a ChemiDoc imager to capture the fluorescence signal within the cross-sectioned of the intestinal lumen and similar result was observed. With time (30 min, 2 hr, and 12 hr) more coumarin-6 were distributed throughout the intestine which is an indication and confirmation of BG's ability to facilitate intestinal transportation of hydrophobic payload (FIG. 2C).

SMILES | area percentage of Bcl2 antibodies (Bcl2 [1]) [%] | treatment response rate [2] | area of Ki67 positive cells (Ki67) [%] | degree of apoptosis (mean fluorescent intensity) [3] [%] | Relative expression of Bcl2 (WB) (Bcl2 [4]) | tumor in stomach by H&E [5] | distribution in intestine layers (fluorescence) ([6]; 2nd hr) | distribution in intestine layers (fluorescence) ([6]; 12th hr) | diffusion through the intestinal layer ([6]; without BG)
O=c1[nH]cc(F)c(=O)[nH]1 [5FU, 5-fluoreuracil] | 1.22 | 10-15% | 0.54 | 49 | 1.24±0.11 | tumor region got significantly reduced |  |  | 
CCN(CC)c1ccc2cc(-c3nc4ccccc4s3)c(=O)oc2c1 [coumarin-6, Coumarin 6] |  |  |  |  |  |  | observed within deeper layers of the intestine | incorporates evenly across the layers of the intestine | not able to diffuse through the intestinal layer
